Activity calls are given as the source filed them. The calls are words filed in the database; no cut-off is given here.
Key:
NG108-15 [1] = assay: Agonist activity at opioid receptor in mouse/rat NG108-15 cells assessed by adenylate cyclase assay; type: cell-based
Cavia porcellus [2] = species: Cavia porcellus; assay: Agonist activity at opioid receptor in electrically stimulated guinea pig ileum at >=50 uM; type: tissue-based
Cavia porcellus [3] = species: Cavia porcellus; assay: Agonist activity at opioid receptor in electrically stimulated guinea pig ileum at <50 uM; type: tissue-based
NG108-15 [4] = conditions: 0.5 uM
Description: Antagonist activity at opioid receptor in mouse/rat NG108-15 cells assessed as reversal of morphine-induced inhibition of adenylate cyclase activity at 0.5 uM

Cavia porcellus [5] = species: Cavia porcellus; conditions: Ileum, 10 nM

Structure (SMILES) | Activity (NG108-15 [1]) | Activity (Cavia porcellus [2]) | Activity (Cavia porcellus [3]) | inhibition (NG108-15 [4]) | inhibition (Cavia porcellus [5])
C=CCN1CC[C@@]23c4c5ccc(O)c4O[C@@H]2C(=O)CC[C@]3(O)[C@@H]1C5 | inactive | inactive | inactive | – | –
C=CCN1CC[C@]23c4c5ccc(O)c4O[C@H]2C(=O)CC[C@@]3(O)[C@H]1C5 | – | – | – | Active | Active
